Calls of active or inactive are those of the source.
Assays:
[1] = A cytotoxicity screen of small molecule inhibitors of the PhoP region in Salmonella typhi identified in the primary screen. [Related pubchem assays: 1850, 1864, 1985 ]; format: functional
Estrogen receptor beta = Estrogen receptor beta (Homo sapiens, UniProt Q92731);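 note: recombinant ER-beta bound to coactivator SRC1 peptide in presence of estradiol agonist; inhibitors block coactivator peptide binding and lower the FRET signal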
Bcl-2-like protein 10 = Bcl-2-like protein 10 (Homo sapiens, UniProt Q9HD36); test: Bcl-B/TR3 peptide binding disruption – biochemical, fluorescence polarization, FITC-TR3 peptide, selectivity assay for Bfl-1 inhibitor project, primary screen (AID 748);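 note: fluorescence polarization from a fluorescein-labelled TR3 peptide binding purified Bcl-B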
Caspase-6 = biological target: T1, Caspase-6 (Homo sapiens, UniProt P55212); test: inhibition of CASP6 peptide cleavage – biochemical, VEID-R110 fluorescence, cherry-pick, dose response (AID 720632)
T1 sequence (P55212 whole entry): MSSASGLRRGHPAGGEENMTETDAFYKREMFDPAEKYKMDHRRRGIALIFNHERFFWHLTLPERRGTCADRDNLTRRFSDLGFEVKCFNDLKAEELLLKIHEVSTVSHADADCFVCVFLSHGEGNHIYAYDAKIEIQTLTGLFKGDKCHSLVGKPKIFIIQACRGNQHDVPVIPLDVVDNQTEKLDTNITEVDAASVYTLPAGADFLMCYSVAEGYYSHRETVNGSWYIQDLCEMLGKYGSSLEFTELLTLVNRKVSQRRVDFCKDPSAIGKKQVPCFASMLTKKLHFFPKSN

[2] = viability loss in HeLa cells – cytotoxicity control for MgcRacGAP inhibitor project, dose response (AID 624300); format: functional
[3] = biological target: Transitional endoplasmic reticulum ATPase (Homo sapiens, UniProt P55072, C522A); test: C522A mutant p97 ATPase inhibitors, dose response, counter-screen for p97 inhibitor project, biochemical, luminescence (AID 1544)
[4] = biological target: T2, Trace amine-associated receptor 1 (Homo sapiens, UniProt Q96RJ0); test: Fluorescence-based cell-based high throughput dose response assay to identify agonists of the human trace amine associated receptor 1 (TAAR1).; format: functional
T2 sequence (Q96RJ0 whole entry): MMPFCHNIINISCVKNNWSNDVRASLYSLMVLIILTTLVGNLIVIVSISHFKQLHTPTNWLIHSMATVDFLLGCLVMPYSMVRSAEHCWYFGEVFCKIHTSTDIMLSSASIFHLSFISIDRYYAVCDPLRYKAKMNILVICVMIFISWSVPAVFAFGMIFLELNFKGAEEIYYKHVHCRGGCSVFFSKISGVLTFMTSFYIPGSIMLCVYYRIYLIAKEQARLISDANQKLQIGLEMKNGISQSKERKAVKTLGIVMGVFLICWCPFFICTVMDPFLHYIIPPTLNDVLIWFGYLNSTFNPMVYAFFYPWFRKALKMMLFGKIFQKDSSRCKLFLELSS

[5] = biological target: Induced myeloid leukemia cell differentiation protein Mcl-1 (Homo sapiens, UniProt Q07820); format: functional
[6] = MIN6 cell viability loss – mouse insulinoma, cytotoxicity control, dose response (AID 2122); format: functional;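 note: confirmatory high-throughput counterscreen run to flag cytotoxic compounds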
cells [7] = format: functional, cell-based
[8] = NIH-3T3 fibroblast cytotoxicity, dose response, cytotoxicity control, cell-based, fluorescence, Alamar Blue, secondary assay (AID 2327); format: functional;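 note: NIH-3T3 mouse fibroblasts cultured with fluconazole at 8 µg/mL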
[9] = biological target: T3, Rac GTPase-activating protein 1 (Homo sapiens, UniProt Q9H0H5); test: blockers of MgcRacGAP-driven Rac1 GTP hydrolysis – biochemical, ADP Hunter fluorescence, primary and confirmatory, confirmation (AID 624330); format: functional
T3 sequence (Q9H0H5 whole entry): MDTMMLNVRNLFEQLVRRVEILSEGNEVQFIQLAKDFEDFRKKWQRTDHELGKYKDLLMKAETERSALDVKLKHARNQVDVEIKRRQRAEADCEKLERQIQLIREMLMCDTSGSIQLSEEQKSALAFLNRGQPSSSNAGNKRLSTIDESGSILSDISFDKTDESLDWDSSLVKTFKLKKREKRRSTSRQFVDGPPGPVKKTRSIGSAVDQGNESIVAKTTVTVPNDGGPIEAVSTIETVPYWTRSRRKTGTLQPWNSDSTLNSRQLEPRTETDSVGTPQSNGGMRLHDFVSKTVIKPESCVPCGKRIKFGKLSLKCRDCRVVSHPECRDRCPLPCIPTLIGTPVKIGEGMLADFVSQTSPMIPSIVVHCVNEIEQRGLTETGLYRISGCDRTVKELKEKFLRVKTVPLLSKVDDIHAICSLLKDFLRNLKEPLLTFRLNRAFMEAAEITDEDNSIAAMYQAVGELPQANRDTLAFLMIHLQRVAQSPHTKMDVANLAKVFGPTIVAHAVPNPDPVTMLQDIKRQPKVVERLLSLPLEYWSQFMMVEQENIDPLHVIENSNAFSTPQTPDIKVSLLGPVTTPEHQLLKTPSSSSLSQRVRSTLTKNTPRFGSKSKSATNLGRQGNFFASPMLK

[10] = decrease of insulin promoter-GFP reporter – imaging, high-content screening, mouse beta cells (AID 1628); format: functional; settings: MIN6
[11] = biological target: T2, Trace amine-associated receptor 1; test: Counterscreen for agonists of the human trace amine associated receptor 1 (hTAAR1): Fluorescence-based cell-based high throughput dose response assay to identify hTAAR1 agonist that also desensitize TAAR1 receptor response.; format: functional
[12] = biological target: Transitional endoplasmic reticulum ATPase (Homo sapiens, UniProt P55072); test: p97 ATPase inhibitors, dose response, biochemical (AID 1534)
cells [13] = format: functional, cell-based; remark: listed apart in the source
Trypsin = Trypsin (Sus scrofa, UniProt P00761); test: trypsin protease activity blockade – biochemical, quenched peptide fluorescence, cherry-pick, selectivity assay for Rce1 protease inhibitor project, dose response (AID 488789)
[14] = biological target: DNA dC->dU-editing enzyme APOBEC-3A (Homo sapiens, UniProt P31941); test: Dose Response confirmation of small molecule APOBEC3A DNA Deaminase Inhibitors via a fluorescence-based single-stranded DNA deaminase assay. [Related pubchem assays (depositor defined):AID493011, AID493024]; format: functional
[15] = biological target: DNA dC->dU-editing enzyme APOBEC-3G (Homo sapiens, UniProt Q9HC16); format: functional;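 note: Dose-response counterscreen measuring inhibition of APOBEC3G DNA deaminase activity, run while confirming APOBEC3A inhibitors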
[16] = biological target: Eukaryotic translation initiation factor 4H (Homo sapiens, UniProt Q15056); test: eIF4H binding inhibition – biochemical, uHTS, fluorescence polarization, translation initiation inhibitor project, primary screen (AID 2012)
[17] = biological target: Polyadenylate-binding protein 1 (Homo sapiens, UniProt P11940); test: blockers of PABP interaction with poly(A) – biochemical, fluorescence polarization, […] (AID 2014)
SN12K1 = test: cells; format: functional; settings: Homo sapiens
cells [18] = format: functional
P388 = test: cells; format: functional; settings: Mus musculus
[19] = Trypanosoma cruzi growth suppression in host cells – NIH3T3 host cells, beta-gal luminescence, confirmation (AID 2044); format: functional, cell-based;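 note: intracellular parasites grown in NIH/3T3 mouse fibroblasts as host cells; luminescent beta-galactosidase reporter signal from transgenic T. cruzi replicating inside host cells; inhibitors lower the luminescence signal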
HEK293 = test: EBV LMP1 TES2 canonical NF-kB signalling blockers – cell-based, HEK293, luciferase, cherry-pick, dose response (AID 588343); format: functional; settings: Homo sapiens
[20] = THP-1 cell cytotoxicity, dose response, cytotoxicity control for non-replicating M. tuberculosis project (AID 489025); format: functional
P388/ADR = test: cells; format: functional; settings: Mus musculus
[21] = tested on: Streptococcus sp. 'group A'; test: Streptococcus pyogenes SK(-)GAS viability under kanamycin – luminescence, BacTiterGlo, confirmation, counter-screen for streptokinase expression inhibitor project, dose response (AID 1900); format: functional, organism-based
[22] = HepG2 cell cytotoxicity, dose response, cytotoxicity control for non-replicating M. tuberculosis project (AID 489018); format: functional; settings: Mycobacterium tuberculosis
cells [23] = test: cells
Streptococcus = test: GAS UMAA2166 growth inhibition – luminescence, BacTiterGlo, counter-screen for streptokinase expression inhibitor project, dose response (AID 1915); format: functional, organism-based;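 note: potency for reduction of bacterial viability or growth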
[24] = NIH3T3 cell viability loss – ATP luminescence, mouse fibroblasts, counter-screen, dose response (AID 2010); format: functional, cell-based;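 note: cells exposed to compound for about 90 hours before reading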
[25] = microbe, parasite or virus in culture; format: functional; settings: Mycobacterium tuberculosis

DNA dC->dU-editing enzyme APOBEC-3G, sequence (Q9HC16 whole entry): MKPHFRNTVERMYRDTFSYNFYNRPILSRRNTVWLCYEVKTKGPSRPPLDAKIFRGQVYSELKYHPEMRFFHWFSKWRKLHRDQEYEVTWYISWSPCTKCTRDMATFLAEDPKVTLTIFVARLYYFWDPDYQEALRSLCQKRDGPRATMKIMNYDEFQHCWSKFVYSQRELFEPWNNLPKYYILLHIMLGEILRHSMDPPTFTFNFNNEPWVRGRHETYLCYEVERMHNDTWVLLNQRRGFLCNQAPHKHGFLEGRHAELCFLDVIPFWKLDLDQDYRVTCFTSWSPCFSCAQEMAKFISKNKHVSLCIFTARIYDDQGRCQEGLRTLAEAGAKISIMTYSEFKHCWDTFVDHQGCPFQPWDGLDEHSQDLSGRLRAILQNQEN
Estrogen receptor beta, sequence (Q92731 whole entry): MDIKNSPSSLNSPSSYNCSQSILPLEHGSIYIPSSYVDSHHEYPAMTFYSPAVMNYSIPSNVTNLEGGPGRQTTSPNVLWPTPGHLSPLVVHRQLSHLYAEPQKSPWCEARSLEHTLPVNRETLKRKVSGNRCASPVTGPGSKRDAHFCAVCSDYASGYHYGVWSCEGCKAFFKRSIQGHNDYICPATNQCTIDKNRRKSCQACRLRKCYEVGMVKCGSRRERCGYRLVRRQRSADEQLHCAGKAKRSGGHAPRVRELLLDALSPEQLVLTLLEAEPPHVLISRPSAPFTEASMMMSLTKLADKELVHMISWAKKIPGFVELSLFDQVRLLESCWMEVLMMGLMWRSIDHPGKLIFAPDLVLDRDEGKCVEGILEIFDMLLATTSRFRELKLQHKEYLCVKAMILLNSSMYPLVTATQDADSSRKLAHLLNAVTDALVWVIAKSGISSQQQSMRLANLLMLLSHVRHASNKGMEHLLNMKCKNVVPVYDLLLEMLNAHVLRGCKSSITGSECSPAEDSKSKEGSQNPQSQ
Trypsin, sequence (P00761 whole entry): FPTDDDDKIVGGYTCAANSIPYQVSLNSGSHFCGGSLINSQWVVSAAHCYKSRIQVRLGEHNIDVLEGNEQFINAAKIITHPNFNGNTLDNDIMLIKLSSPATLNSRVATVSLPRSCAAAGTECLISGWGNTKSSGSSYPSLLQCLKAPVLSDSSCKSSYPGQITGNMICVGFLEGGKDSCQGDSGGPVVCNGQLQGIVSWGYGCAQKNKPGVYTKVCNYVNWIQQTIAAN
Polyadenylate-binding protein 1, sequence (P11940 whole entry): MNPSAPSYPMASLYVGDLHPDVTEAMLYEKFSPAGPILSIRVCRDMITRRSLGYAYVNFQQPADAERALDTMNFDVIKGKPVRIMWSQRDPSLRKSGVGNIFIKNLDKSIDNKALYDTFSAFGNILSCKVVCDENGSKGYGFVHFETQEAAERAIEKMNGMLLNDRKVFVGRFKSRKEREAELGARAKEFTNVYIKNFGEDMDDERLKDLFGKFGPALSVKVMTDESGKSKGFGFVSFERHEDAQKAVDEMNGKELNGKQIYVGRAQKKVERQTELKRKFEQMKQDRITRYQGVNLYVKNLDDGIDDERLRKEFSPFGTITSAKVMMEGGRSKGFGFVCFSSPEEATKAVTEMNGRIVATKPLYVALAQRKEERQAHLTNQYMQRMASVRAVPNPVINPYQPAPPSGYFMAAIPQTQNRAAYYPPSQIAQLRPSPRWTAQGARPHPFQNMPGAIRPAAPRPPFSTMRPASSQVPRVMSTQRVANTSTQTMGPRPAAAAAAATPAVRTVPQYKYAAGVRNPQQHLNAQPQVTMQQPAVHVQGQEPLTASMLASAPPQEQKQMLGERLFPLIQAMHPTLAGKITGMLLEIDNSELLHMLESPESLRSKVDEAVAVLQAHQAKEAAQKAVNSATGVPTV
Induced myeloid leukemia cell differentiation protein Mcl-1, sequence (Q07820 whole entry): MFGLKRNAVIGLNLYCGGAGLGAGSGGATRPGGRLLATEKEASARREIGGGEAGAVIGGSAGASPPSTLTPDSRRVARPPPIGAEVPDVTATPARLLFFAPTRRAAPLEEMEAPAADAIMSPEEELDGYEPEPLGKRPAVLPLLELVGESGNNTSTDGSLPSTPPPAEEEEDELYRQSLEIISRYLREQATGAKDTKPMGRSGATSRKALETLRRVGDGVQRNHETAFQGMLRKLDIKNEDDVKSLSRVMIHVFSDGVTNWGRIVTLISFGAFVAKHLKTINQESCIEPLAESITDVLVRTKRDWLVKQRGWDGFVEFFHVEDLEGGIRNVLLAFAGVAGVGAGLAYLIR
Transitional endoplasmic reticulum ATPase (Homo sapiens, UniProt P55072, C522A), sequence (P55072 2-806 C522A limits assumed): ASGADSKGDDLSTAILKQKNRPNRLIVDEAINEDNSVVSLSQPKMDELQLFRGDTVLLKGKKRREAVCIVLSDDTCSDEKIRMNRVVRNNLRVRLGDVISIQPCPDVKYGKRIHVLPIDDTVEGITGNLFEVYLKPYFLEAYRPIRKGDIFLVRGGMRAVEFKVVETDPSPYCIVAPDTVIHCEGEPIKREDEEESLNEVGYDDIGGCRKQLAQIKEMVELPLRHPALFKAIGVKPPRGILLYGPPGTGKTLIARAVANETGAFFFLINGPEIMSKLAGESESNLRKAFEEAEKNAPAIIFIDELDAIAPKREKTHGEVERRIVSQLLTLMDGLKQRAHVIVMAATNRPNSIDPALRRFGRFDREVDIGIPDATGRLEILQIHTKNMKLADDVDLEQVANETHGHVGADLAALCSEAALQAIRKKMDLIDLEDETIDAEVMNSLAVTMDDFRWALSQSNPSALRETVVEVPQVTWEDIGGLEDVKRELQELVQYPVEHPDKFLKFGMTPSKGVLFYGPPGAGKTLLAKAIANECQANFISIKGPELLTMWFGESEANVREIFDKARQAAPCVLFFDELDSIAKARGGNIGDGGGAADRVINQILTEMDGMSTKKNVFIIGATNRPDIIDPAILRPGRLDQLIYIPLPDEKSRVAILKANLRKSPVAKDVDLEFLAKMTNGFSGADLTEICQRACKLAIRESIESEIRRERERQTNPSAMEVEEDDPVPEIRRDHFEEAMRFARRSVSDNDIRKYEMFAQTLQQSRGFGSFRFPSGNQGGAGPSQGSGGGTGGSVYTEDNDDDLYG
Bcl-2-like protein 10, sequence (Q9HD36 whole entry): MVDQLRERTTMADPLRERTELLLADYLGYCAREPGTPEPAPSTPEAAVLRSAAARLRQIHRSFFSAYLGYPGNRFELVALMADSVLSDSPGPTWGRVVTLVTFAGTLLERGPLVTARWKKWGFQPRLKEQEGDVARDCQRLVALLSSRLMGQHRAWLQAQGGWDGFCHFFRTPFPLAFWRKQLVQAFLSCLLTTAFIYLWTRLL
DNA dC->dU-editing enzyme APOBEC-3A, sequence (P31941 whole entry): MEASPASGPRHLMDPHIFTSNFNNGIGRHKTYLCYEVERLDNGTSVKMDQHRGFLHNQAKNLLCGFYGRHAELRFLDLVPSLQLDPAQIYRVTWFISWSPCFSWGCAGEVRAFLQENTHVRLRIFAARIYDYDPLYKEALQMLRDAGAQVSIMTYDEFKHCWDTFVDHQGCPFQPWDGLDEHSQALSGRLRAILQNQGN
Transitional endoplasmic reticulum ATPase (Homo sapiens, UniProt P55072), sequence (P55072 whole entry): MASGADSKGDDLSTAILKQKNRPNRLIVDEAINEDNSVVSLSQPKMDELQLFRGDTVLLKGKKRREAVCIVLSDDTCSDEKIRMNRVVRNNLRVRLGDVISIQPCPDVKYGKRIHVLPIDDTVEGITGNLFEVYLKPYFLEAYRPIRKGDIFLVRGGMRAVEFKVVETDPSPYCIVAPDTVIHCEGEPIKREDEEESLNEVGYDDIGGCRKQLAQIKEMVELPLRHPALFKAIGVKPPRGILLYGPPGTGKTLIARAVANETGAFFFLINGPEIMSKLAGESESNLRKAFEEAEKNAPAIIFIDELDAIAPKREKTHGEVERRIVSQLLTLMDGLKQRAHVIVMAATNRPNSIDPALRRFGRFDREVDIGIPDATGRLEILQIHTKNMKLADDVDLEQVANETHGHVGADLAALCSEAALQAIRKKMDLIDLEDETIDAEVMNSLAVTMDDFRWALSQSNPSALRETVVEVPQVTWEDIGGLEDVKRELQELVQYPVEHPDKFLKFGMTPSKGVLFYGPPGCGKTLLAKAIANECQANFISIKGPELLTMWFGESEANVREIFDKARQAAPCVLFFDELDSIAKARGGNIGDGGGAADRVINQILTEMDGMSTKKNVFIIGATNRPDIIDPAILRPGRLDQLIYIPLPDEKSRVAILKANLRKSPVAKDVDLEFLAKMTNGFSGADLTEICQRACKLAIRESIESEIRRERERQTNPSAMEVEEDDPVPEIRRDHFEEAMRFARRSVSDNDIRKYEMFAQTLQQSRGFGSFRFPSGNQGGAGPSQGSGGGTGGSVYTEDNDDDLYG

O=C(N/N=C/c1c(Cl)nc2ccccn2c1=O)c1cccnc1
EC50 [1]: > 50 µM (active)

O=C(Nc1ccccc1C(=O)O)c1ccccc1
IC50 (Estrogen receptor beta): > 50 µM (not active)
IC50 (Bcl-2-like protein 10): > 100 µM (inactive)

Oc1ccc(/C=N/Nc2ccnc3cc(Cl)ccc23)cc1O
AC50 (Caspase-6): 1.61 µM (active)
CC50 [2]: 43.5 µM (active)
IC50 [3]: > 50 µM (not active)
EC50 [4]: 0.498 µM (active)
IC50 [5]: 4.73 µM (active)
IC50 [6]: 6.19 µM (active)
IC50 (cells [7]): > 29.9 µM (inactive)
EC50 [8]: 7.32 µM (active)
IC50 [9]: 30 µM (active)
IC50 [10]: 3.02 µM (active)
IC50 [11]: 2.47 µM (active)
IC50 [12]: 36.5 µM (not active)
EC50 (cells [13]): > 29.9 µM (inactive)

N=C(N)NC(=O)c1nc(Cl)c(N)nc1N
AC50 (Trypsin): 9.3 µM (active)

C[n+]1ccccc1/C=C1\Sc2ccccc2N1CCO
IC50 [14]: 1.08 µM (active)
IC50 [15]: 2.53 µM (active)
IC50 [16]: > 100 µM (inactive)
IC50 [17]: 2.22 µM (active)

CO[C@@]12[C@H](COC(N)=O)C3=C(C(=O)C(C)=C(N)C3=O)N1C[C@H]1[C@@H]2N1C (some centres undefined) [PORFIROMYCIN]
GI50 (SN12K1): 3.9 µM (inactive)
IC50 (cells [18]): 0.65 µM (active)
GI50 (P388): 1.88 µM (inactive)
EC50 [19]: < 0.1 µM (active)
AC50 (HEK293): 4.01 µM (active)
CC50 [20]: 1.32 µM (active)
GI50 (P388/ADR): 7.74 µM (inactive)
EC50 [21]: < 0.06 µM (active)
CC50 [22]: > 20 µM (active)
EC50 (cells [23]): 0.088 µM (active)
EC50 (Streptococcus): < 0.06 µM (active)
EC50 [24]: 6.8 µM (active)
CC50 [25]: 28.3 µM (active)

— ChEMBL document CHEMBL1201862, “PubChem BioAssay data set” (2004)
